Assay results as given in patent US20240025862A1, “SUBSTITUTED N-PHENYLURACILS AND SALTS THEREOF, AND USE THEREOF AS HERBICIDAL ACTIVE SUBSTANCES” (Bayer Aktiengesellschaft, priority 2020, published 2024).

Experiments:
Assay type in all cases: in vivo
[1] = system: Abutilon theophrasti (ABUTH); experiment: Post-emergence herbicidal action, greenhouse pot test; conditions: rated visually after about 3 weeks vs untreated controls, 100% = plants have died
In short: (§1)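 Activity was scored by eye about 3 weeks after treatment against untreated plants, where 100% means dead plants and 0% means no difference. Plants at the one-leaf stage received a foliar spray of WP or EC formulations in water plus 0.5% additive (600 l/ha, up to 20 g/ha). Plants were grown in sandy loam pots in a greenhouse for 2–3 weeks before spraying.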

[2] = system: Amaranthus retroflexus (AMARE); experiment: as above; conditions: rated visually after about 3 weeks vs untreated controls, 100% = plants have died
In short: as §1

Avena fatua (AVEFA) = experiment: as above; conditions: 20 g/ha, rated visually after about 3 weeks vs untreated controls, 100% = plants have died
In short: as §1

Lolium rigidum (LOLRI) = experiment: as above; conditions: Lolium rigidum, 504 h, dosage 20 g/ha, read-out: Post-emergence action against LOLRI in %
In short: as §1

[3] = system: Pharbitis purpurea (PHBPU); experiment: as above
In short: as §1

[4] = system: Polygonum convolvulus (POLCO); experiment: as above
In short: as §1

Veronica persica (VERPE) = experiment: as above
In short: as §1

Viola tricolor (VIOTR) = experiment: as above
In short: as §1

[5] = system: Alopecurus myosuroides (ALOMY); experiment: Post-emergence herbicidal action, greenhouse pot test (also comparative test C)
In short: (§2)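 Green parts of one-leaf-stage plants are sprayed at 600 l/ha with formulated compound plus 0.5% additive, then kept under optimum greenhouse conditions for about 3 weeks. Damage is scored visually, where 100% means dead plants and 0% means no difference from controls.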

[6] = system: Echinochloa crus-galli (ECHCG); experiment: as above; conditions: for Post-emergence action at 1.25 g/ha against ECHCG in %: rated visually after about 3 weeks vs untreated controls, 100% = plants have died
In short: as §2

[7] = system: Matricaria inodora (MATIN); experiment: as above
In short: as §2

Setaria viridis (SETVI) = experiment: as above
In short: as §2

Glycine max (GLXMA) = experiment: Post-emergence crop plant compatibility, greenhouse pot test
In short: (§3)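 Greenhouse pot test; post-emergence foliar spray at one-leaf stage, WP or EC in water + 0.5% additive, 600 l/ha. Visual rating after ~3 wk, % relative to untreated (0–100%).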

[8] = system: Triticum aestivum (TRZAS); experiment: as above; conditions: vs untreated controls
In short: as §3

Zea mays (ZEAMX) = experiment: as above; conditions: 1.25 g/ha, vs untreated controls
In short: as §3

Oryza sativa (ORYSA) = experiment: Post-emergence crop plant compatibility, greenhouse pot test (also comparative test C); conditions: for Post-emergence action against ORYSA (crop plant compatibility): vs untreated controls
In short: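 Visual damage versus untreated plants (0% = like control, 100% = plants died) was scored about 3 weeks after a post-emergence spray in greenhouse pots. Treatment: one-leaf stage, WP or EC in water at 600 l/ha with 0.5% additive; a/b/c mark different dosages on the same crop.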

Brassica napus (BRSNW) = experiment: Post-emergence crop plant compatibility, greenhouse pot test; conditions: 1.25 g/ha, vs untreated controls
In short: as §3

[9] = application rate of 5 g or less per hectare, tables C1 to C4
[10] = comparative test C, application rate 1.25 g/ha

Work on `Cn1c(C(F)(F)F)cc(=O)n(-c2cc(Oc3ccccc3OCC(=O)OCC#N)c([N+](=O)[O-])cc2F)c1=O` [I.6-176, Cyanomethyl (2-{4-fluoro-5-[3-methyl-2,6-dioxo-4-(trifluoromethyl)-3,6-dihydropyrimidin-1(2H)-yl]-2-nitrophenoxy}phenoxy)acetate] yielded a pest or weed control at 1.25 g/ha ([1]; Abutilon theophrasti, 504 h, 1.25 g/ha, read-out: Post-emergence action at 1.25 g/ha against ABUTH in %) of 100%, a pest or weed control at 5 g/ha ([1]; Abutilon theophrasti, 504 h, 5 g/ha, read-out: Post-emergence action at 5 g/ha against ABUTH in %) of 100% and a pest or weed control at 20 g/ha ([1]; Abutilon theophrasti, 504 h, 20 g/ha, read-out: Post-emergence action at 20 g/ha against ABUTH in %) of 100%. It also gave a pest or weed control at 1.25 g/ha ([2]; Amaranthus retroflexus, 504 h, 1.25 g/ha, read-out: Post-emergence action at 1.25 g/ha against AMARE in %) of 100%, a pest or weed control at 5 g/ha ([2]; Amaranthus retroflexus, 504 h, 5 g/ha, read-out: Post-emergence action at 5 g/ha against AMARE in %) of 100% and a pest or weed control at 20 g/ha ([2]; Amaranthus retroflexus, 504 h, 20 g/ha, read-out: Post-emergence action at 20 g/ha against AMARE in %) of 100%. The pest or weed control at 20 g/ha (Avena fatua (AVEFA); Avena fatua, 504 h, read-out: Post-emergence action at 20 g/ha against AVEFA in %) was 80%, the pest or weed control at 20 g/ha (Lolium rigidum (LOLRI)) was 90% and the pest or weed control at 1.25 g/ha ([3]; Ipomoea purpurea, 504 h, dosage 1.25 g/ha, read-out: Post-emergence action against PHBPU in %) was 80%. For the same compound, the pest or weed control at 5 g/ha ([3]; Ipomoea purpurea, 504 h, dosage 5 g/ha, read-out: Post-emergence action against PHBPU in %) was 100%, the pest or weed control at 20 g/ha ([3]; Ipomoea purpurea, 504 h, dosage 20 g/ha, read-out: Post-emergence action against PHBPU in %) was 100% and the pest or weed control at 20 g/ha ([4]; Fallopia convolvulus, 504 h, dosage 20 g/ha, read-out: Post-emergence action against POLCO in %) was 100%. For the same compound, the pest or weed control at 1.25 g/ha (Veronica persica (VERPE); Veronica persica, 504 h, 1.25 g/ha, read-out: Post-emergence action against VERPE) was 80%, the pest or weed control at 5 g/ha (Veronica persica (VERPE); Veronica persica, 504 h, 5 g/ha, read-out: Post-emergence action against VERPE) was 90% and the pest or weed control at 20 g/ha (Veronica persica (VERPE); Veronica persica, 504 h, 20 g/ha, read-out: Post-emergence action against VERPE) was 100%. The pest or weed control at 1.25 g/ha (Viola tricolor (VIOTR); Viola tricolor, 504 h, 1.25 g/ha, read-out: Post-emergence action against VIOTR) was 100%, the pest or weed control at 5 g/ha (Viola tricolor (VIOTR); Viola tricolor, 504 h, 5 g/ha, read-out: Post-emergence action against VIOTR) was 100% and the pest or weed control at 20 g/ha (Viola tricolor (VIOTR); Viola tricolor, 504 h, 20 g/ha, read-out: Post-emergence action against VIOTR) was 100%. For the same compound, the pest or weed control at 5 g/ha ([5]; Alopecurus myosuroides, 504 h, 5 g/ha, rated visually after about 3 weeks vs untreated controls, 100% = plants have died, read-out: Post-emergence action at 5 g/ha against ALOMY in %) was 80%, the pest or weed control at 20 g/ha ([5]; Alopecurus myosuroides, 504 h, 20 g/ha, rated visually after about 3 weeks vs untreated controls, 100% = plants have died, read-out: Post-emergence action at 20 g/ha against ALOMY in %) was 90% and the “Post-emergence action at 1.25 g/ha against ECHCG in %” value [6] was 100%. The pest or weed control at 5 g/ha ([6]; Echinochloa crus-galli, 504 h, dosage 5 g/ha, read-out: Post-emergence action against ECHCG in %) was 100%, the pest or weed control at 20 g/ha ([6]; Echinochloa crus-galli, 504 h, dosage 20 g/ha, read-out: Post-emergence action against ECHCG in %) was 100% and the pest or weed control at 5 g/ha ([7]; Tripleurospermum inodorum, 504 h, dosage 5 g/ha, read-out: Post-emergence action against MATIN in %) was 80%. The pest or weed control at 20 g/ha ([7]; Tripleurospermum inodorum, 504 h, dosage 20 g/ha, read-out: Post-emergence action against MATIN in %) was 100%, the pest or weed control at 20 g/ha (Setaria viridis (SETVI); Setaria viridis, 504 h, 20 g/ha, read-out: Post-emergence action against SETVI) was 100% and the pest or weed control at 1.25 g/ha (Setaria viridis (SETVI); Setaria viridis, 504 h, dosage 1.25 g/ha, read-out: Post-emergence action against SETVI in %) was 100%. For the same compound, the pest or weed control at 5 g/ha (Setaria viridis (SETVI); Setaria viridis, 504 h, dosage 5 g/ha, read-out: Post-emergence action against SETVI in %) was 100%, the “Post-emergence action against GLXMA in %” value (Glycine max (GLXMA); 1.25 g/ha) was 20% and the “Post-emergence action against GLXMA in %” value (Glycine max (GLXMA); 5 g/ha) was 20%. The “Post-emergence action against TRZAS (crop plant compatibility)” value (from here on “Post-emergence action against TRZAS”) ([8]; 1.25 g/ha) was 20%, the “Post-emergence action against TRZAS” value ([8]; 5 g/ha) was 20% and the “Post-emergence action against TRZAS” value ([8]; 20 g/ha) was 20%. The “Post-emergence action against ZEAMX (crop plant compatibility)” value (Zea mays (ZEAMX)) was 10%, the “Post-emergence action against ORYSA (crop plant compatibility)” value (from here on “Post-emergence action against ORYSA”) (Oryza sativa (ORYSA); 1.25 g/ha) was 0% and the “Post-emergence action against ORYSA” value (Oryza sativa (ORYSA); 5 g/ha) was 20%.

In the case of `Cn1c(C(F)(F)F)cc(=O)n(-c2cc(Oc3ccccc3OCC(=O)OC3COC3)c(Cl)cc2F)c1=O` [I.7-115], the “Post-emergence action at 1.25 g/ha against ABUTH in %” value ([1]; 1.25 g/ha) is reported as 80%, the “Post-emergence action at 5 g/ha against ABUTH in %” value ([1]; 5 g/ha) is reported as 100% and the “Post-emergence action at 20 g/ha against ABUTH in %” value ([1]; 20 g/ha) is reported as 100%. The “Post-emergence action at 1.25 g/ha against AMARE in %” value ([2]; 1.25 g/ha) was 100%, the “Post-emergence action at 5 g/ha against AMARE in %” value ([2]; 5 g/ha) was 100% and the “Post-emergence action at 20 g/ha against AMARE in %” value ([2]; 20 g/ha) was 100%. The “Post-emergence action at 20 g/ha against AVEFA in %” value (Avena fatua (AVEFA)) was 100%, the “Post-emergence action against PHBPU in %” value ([3]; dosage 1.25 g/ha) was 100% and the “Post-emergence action against PHBPU in %” value ([3]; dosage 5 g/ha) was 100%. For the same compound, the “Post-emergence action against PHBPU in %” value ([3]; dosage 20 g/ha) was 100%, the “Post-emergence action against POLCO in %” value ([4]; dosage 5 g/ha) was 100% and the “Post-emergence action against POLCO in %” value ([4]; dosage 20 g/ha) was 100%. The “Post-emergence action against VERPE” value (Veronica persica (VERPE); 1.25 g/ha) was 100%, the “Post-emergence action against VERPE” value (Veronica persica (VERPE); 5 g/ha) was 100% and the “Post-emergence action against VERPE” value (Veronica persica (VERPE); 20 g/ha) was 100%. For the same compound, the “Post-emergence action against VIOTR” value (Viola tricolor (VIOTR); 1.25 g/ha) was 100%, the “Post-emergence action against VIOTR” value (Viola tricolor (VIOTR); 5 g/ha) was 100% and the “Post-emergence action against VIOTR” value (Viola tricolor (VIOTR); 20 g/ha) was 100%. The “Post-emergence action at 5 g/ha against ALOMY in %” value ([5]; 5 g/ha, rated visually after about 3 weeks vs untreated controls, 100% = plants have died) was 100%, the “Post-emergence action at 20 g/ha against ALOMY in %” value ([5]; 20 g/ha, rated visually after about 3 weeks vs untreated controls, 100% = plants have died) was 100% and the “herbicidal efficacy against ALOMY by comparison with literature compound a-17 / 3-14” value [5, 9] was “distinct improvement in herbicidal efficacy”. The “Post-emergence action at 1.25 g/ha against ECHCG in %” value [6] was 100%, the “herbicidal efficacy against ECHCG by comparison with literature compound a-17 / 3-14” value [6, 9] was “distinct improvement in herbicidal efficacy” and the “ECHCG (efficacy in %)” value [6, 10] was 100%. For the same compound, the “Post-emergence action against ECHCG in %” value ([6]; dosage 5 g/ha) was 100%, the “Post-emergence action against ECHCG in %” value ([6]; dosage 20 g/ha) was 100% and the “herbicidal efficacy against MATIN by comparison with literature compound a-17 / 3-14” value [7, 9] was “distinct improvement in herbicidal efficacy”. The “MATIN (efficacy in %)” value [7, 10] was 100%, the “Post-emergence action against MATIN in %” value ([7]; dosage 1.25 g/ha) was 100% and the “Post-emergence action against MATIN in %” value ([7]; dosage 5 g/ha) was 100%. For the same compound, the “Post-emergence action against MATIN in %” value ([7]; dosage 20 g/ha) was 100%, the “Post-emergence action against SETVI” value (Setaria viridis (SETVI); 20 g/ha) was 100% and the “herbicidal efficacy against SETVI by comparison with literature compound a-17 / 3-14” value (Setaria viridis (SETVI); [9]) was “distinct improvement in herbicidal efficacy”. The “SETVI (efficacy in %)” value (Setaria viridis (SETVI); [10]) was 100%, the “Post-emergence action against SETVI in %” value (Setaria viridis (SETVI); dosage 1.25 g/ha) was 100% and the “Post-emergence action against SETVI in %” value (Setaria viridis (SETVI); dosage 5 g/ha) was 100%. For the same compound, the “Post-emergence action against BRSNW (crop plant compatibility)” value (Brassica napus (BRSNW)) was 20%, the “Post-emergence action against TRZAS” value ([8]; 1.25 g/ha) was 0% and the “Post-emergence action against ZEAMX (crop plant compatibility)” value (Zea mays (ZEAMX)) was 20%. The “Post-emergence action against ORYSA” value (Oryza sativa (ORYSA); 1.25 g/ha) was 0%, the “compatibility with respect to the crop plant Oryza sativa (ORYSA) by comparison with literature compound a-17 / 3-14” value (Oryza sativa (ORYSA); application rate of 1.25 g per hectare, table C5) was “distinct improvement in compatibility” and the “ORYSA (efficacy in %)” value (Oryza sativa (ORYSA); comparative test C, application rate 1.25 g/ha, crop plant compatibility) was 0%.
